Laboratory results from ChEMBL document CHEMBL1132813, “Design, synthesis and cytotoxic activities of naphthyl analogues of combretastatin A-4” (Bioorg Med Chem Lett, 2000).

Columns and labels:
Assay type in all cases: functional, cell-based
A549 = experiment: The compound was evaluated for its cytotoxic potency against A-549 cell line; conditions: Homo sapiens
HT-29 = experiment: The compound was evaluated for its cytotoxic potency against HT-29 cell line; conditions: Homo sapiens
P388 = experiment: The compound was evaluated for its cytotoxic potency against P388 cell line; conditions: Mus musculus
SK-MEL-28 = experiment: The compound was evaluated for its cytotoxic potency against MEL-28 cell line; conditions: Homo sapiens

SMILES	IC50 (A549) [nM]	IC50 (HT-29) [nM]	IC50 (P388) [nM]	IC50 (SK-MEL-28) [nM]
COc1ccc(/C=C\c2ccc3ccccc3c2)cc1O	39.8	39.8	39.8	39.8
COc1cc(CCc2ccc3ccccc3c2)cc(OC)c1OC	316	316	316	316
COc1ccc2[nH]c(-c3ccc4ccccc4c3)c(-c3cc(OC)c(OC)c(OC)c3)c2c1	1260	1260	1260	1260
C(=C/c1ccc2ccccc2c1)/c1ccc2ccccc2c1	3980	3980	3980	3980
COc1cc(/C=C\c2ccc3ccccc3c2)cc(OC)c1OC [NAPHTHYLCOMBRETASTATIN]	15.8	15.8	15.8	15.8
COc1ccc(/C=C\c2cc(OC)c(OC)c(OC)c2)cc1O [COMBRETASTATIN A4]	3.16	31.6	3.16	3.16
COc1ccc(CCc2ccc3ccccc3c2)cc1O	5010	10000	5010	5010
COc1ccc(/C=C/c2ccc3ccccc3c2)cc1O	3980	3980	3980	3980
COc1cc(/C=C/c2ccc3ccccc3c2)cc(OC)c1OC	398	398	398	398
